Measured values taken from PubChem BioAssay AID2060513 (Molecular Pharmacology Branch, DTP, NCI, 2025).

Tested on: 299254-011-R-J1-PDC complex spheroids viability
Assay: Anticancer human tumor 299254-011-R-J1-PDC patient-derived melanoma cell line growth inhibition [GQUAD]
Conditions: for IC50: curve of first compound; for viability, T/C: stronger effect = lower value
Source text: DNA G-quadruplex Stabilizer Agents in Combinations in Complex Spheroids
A high-throughput screen of multi-cell type tumor spheroids was designed to identify active combinations of DNA G-quadruplex stabilizer agents and targeted small molecules. Complex spheroids include a stromal component modeled by human endothelial cells (HUVEC) and fibroblasts modeled by human mesenchymal stem cells (MSCs). The concentration ranges selected for each drug and investigational agent were based upon clinically achievable concentrations if the clinical Cmax of the agent was known.
Compounds. The drugs and investigational agents: pidnarulex (CX-5461; NSC782164), APTO-253 (NSC789042), BRACO-19 (NSC847499), peposertib (NSC802822), ceralasertib (NSC780249), elimusertib (NSC800525), camonsertib (NSC841442), AZD-1390 (NSC803789), olaparib (NSC753686), talazoparib (NSC767125), ART-558 (NSC835418), sotorasib (NSC818433), MRTX-1133 (NSC836407), SN-38 (NSC673596), topotecan (NSC609699), etoposide (NSC141540), doxorubicin (NSC123127), gemcitabine (NSC613327), 5-fluorouracil (NSC19893), paclitaxel (NSC125973), vemurafenib (NSC761431), panobinostat (NSC761190), R-306465 (JNJ-16241199; NSC773264), adavosertib (NSC754352), TP-3654 (NSC805149), carboplatin (NSC241240), KSQ-4279 (NSC840948), and staurosporine (NSC755774) were obtained from the National Cancer Institute (NCI) Developmental Therapeutics Program Chemical Repository (34). The FDA-approved anticancer drug set is available from the NCI Developmental Therapeutics Program. […] The stock solutions were prepared in dimethyl sulfoxide (DMSO, Sigma-Aldrich, St. Louis, MO, cat. D2650) at 800-fold the tested concentration and stored at -70 degrees C prior to their use. All drugs and investigational agents were tested over a range starting from a high concentration at or near the clinical Cmax and decreasing in half-log increments. If the clinical Cmax for an agent had not been determined, the highest concentration tested was 10 microM.
2.3 Cell Culture. All cells were maintained in an incubator at 37 degrees C and 5% CO2 with 95% humidity. The PDC lines were cultured according to standard operating procedures established by the NCI PDMR. All PDCs were thawed and cultured in Matrigel-coated flasks prepared with a working solution of 1X Ham's F-12 nutrient mix, without supplementation (Invitrogen, cat. 11765054), 100 U/mL penicillin-streptomycin (Invitrogen, cat. 15140122), and 2.5% Matrigel (Corning Inc., cat. 354248) for the first three passages. The 857933-349-R-J2-PDC line was cultured in 6C/Colon 1B media, which includes advanced DMEM/F-12 (Thermo Fisher Scientific, cat. 12634028), 10 mM HEPES (Thermo Fisher Scientific, cat. 15630080), 1X GlutaMAX supplement (Thermo Fisher Scientific, cat. 35050061), 0.1 mg/mL primocin (InvivoGen, cat. ant-pm-2), 10% defined fetal bovine serum, heat inactivated (HyClone Laboratories Inc., cat. SH30070.03HI), 50% L-WRN conditioned media (ATCC, cat. CRL-3276), 1.25 mM N-Acetyl-L-cysteine (Sigma-Aldrich, cat. A9165), 10 mM nicotinamide (Sigma-Aldrich, cat. N0636), 1X B-27 supplement (Thermo Fisher Scientific, cat. 17504044), 1X N-2 supplement (Thermo Fisher Scientific, cat. 17502048), 10 microM Y-27632 dihydrochloride (Tocris Bioscience, cat. 1254), and 50 ng/mL human EGF recombinant protein (Thermo Fisher Scientific, cat. PHG0311). The 485176-168-R4-J1-PDC line was cultured in Panc media, which includes all 6C/Colon 1B media components plus 100 ng/mL human FGF-10 (Thermo Fisher Scientific, cat. 100-26), 500 nM SB-431542 (Selleckchem, cat. S1067), and gastrin (Tocris, cat. 3006).
[…]

[1] = second compound 0.0316 µM, first compound 0.0316 µM
[2] = second compound 0.0316 µM, first compound 0.1 µM
[3] = second compound 0.0316 µM, first compound 0.316 µM
[4] = second compound 0.0316 µM, first compound 1 µM
[5] = second compound 0.0316 µM, first compound 3.16 µM
[6] = second compound 0.0316 µM, first compound 10 µM
[7] = second compound 0.1 µM, first compound 0.0316 µM
[8] = second compound 0.1 µM, first compound 0.1 µM
[9] = second compound 0.1 µM, first compound 0.316 µM
[10] = second compound 0.1 µM, first compound 1 µM
[11] = second compound 0.1 µM, first compound 3.16 µM
[12] = second compound 0.1 µM, first compound 10 µM
[13] = second compound 0.316 µM, first compound 0.0316 µM
[14] = second compound 0.316 µM, first compound 0.1 µM
[15] = second compound 0.316 µM, first compound 0.316 µM
[16] = second compound 0.316 µM, first compound 1 µM
[17] = second compound 0.316 µM, first compound 3.16 µM
[18] = second compound 0.316 µM, first compound 10 µM
[19] = second compound 1 µM, first compound 0.0316 µM
[20] = second compound 1 µM, first compound 0.1 µM
[21] = second compound 1 µM, first compound 0.316 µM
[22] = second compound 1 µM, first compound 1 µM
[23] = second compound 1 µM, first compound 3.16 µM
[24] = second compound 1 µM, first compound 10 µM
[25] = second compound 3.16 µM, first compound 0.0316 µM
[26] = second compound 3.16 µM, first compound 0.1 µM
[27] = second compound 3.16 µM, first compound 0.316 µM
[28] = second compound 3.16 µM, first compound 1 µM
[29] = second compound 3.16 µM, first compound 3.16 µM
[30] = second compound 3.16 µM, first compound 10 µM
[31] = second compound 10 µM, first compound 0.0316 µM
[32] = second compound 10 µM, first compound 0.1 µM
[33] = second compound 10 µM, first compound 0.316 µM
[34] = second compound 10 µM, first compound 1 µM
[35] = second compound 10 µM, first compound 3.16 µM
[36] = second compound 10 µM, first compound 10 µM
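Further: spheroids exposed to the agents for seven days before readout.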
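Wherever viability, T/C is given: percent viability relative to DMSO vehicle control wells = 100%.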

Compound `CC(C)n1c(=O)n(C)c2cnc3cc(F)c(-c4ccc(OCCCN5CCCCC5)nc4)cc3c21` + CN(C)c1ccc(Nc2c3ccc(NC(=O)CCN4CCCC4)cc3nc3cc(NC(=O)CCN4CCCC4)ccc23)cc1 has an IC50 (second compound 0.0316 µM) of 9230 nM, an IC50 (second compound 0.1 µM) of 8050 nM and an IC50 (second compound 0.316 µM) of 8130 nM. For the same compound, the IC50 (second compound 1 µM) was 7220 nM, the IC50 (second compound 3.16 µM) was 5700 nM and the IC50 (second compound 10 µM) was 2130 nM. For the same compound, the viability, T/C [1] was 102%, the viability, T/C [2] was 108% and the viability, T/C [3] was 91.2%. The viability, T/C [4] was 76.3%, the viability, T/C [5] was 94% and the viability, T/C [6] was 46.7%. The viability, T/C [7] was 93.4%, the viability, T/C [8] was 79.6% and the viability, T/C [9] was 106%. The viability, T/C [10] was 80.7%, the viability, T/C [11] was 81.3% and the viability, T/C [12] was 42.7%. The viability, T/C [13] was 86.4%, the viability, T/C [14] was 102% and the viability, T/C [15] was 87%. It also gave a viability, T/C [16] of 93.2%, a viability, T/C [17] of 85.7% and a viability, T/C [18] of 42.1%. For the same compound, the viability, T/C [19] was 91.6%, the viability, T/C [20] was 87.1% and the viability, T/C [21] was 79.4%. It also gave a viability, T/C [22] of 77.6%, a viability, T/C [23] of 85.9% and a viability, T/C [24] of 36.5%. For the same compound, the viability, T/C [25] was 93.9%, the viability, T/C [26] was 81.8% and the viability, T/C [27] was 86.2%. It also gave a viability, T/C [28] of 77.2%, a viability, T/C [29] of 61.9% and a viability, T/C [30] of 38.1%. The viability, T/C [31] was 83.2%, the viability, T/C [32] was 79.9% and the viability, T/C [33] was 77%. It also gave a viability, T/C [34] of 64.5%, a viability, T/C [35] of 42.4% and a viability, T/C [36] of 28.9%.

Compound `CC1COCCN1c1cc(-c2ccnn2C)c2ccnc(-c3ccn[nH]3)c2n1` (centres undefined) + CN(C)c1ccc(Nc2c3ccc(NC(=O)CCN4CCCC4)cc3nc3cc(NC(=O)CCN4CCCC4)ccc23)cc1 has an IC50 (second compound 0.0316 µM) of 185 nM, an IC50 (second compound 0.1 µM) of 189 nM and an IC50 (second compound 0.316 µM) of 206 nM. For the same compound, the IC50 (second compound 1 µM) was 202 nM, the IC50 (second compound 3.16 µM) was 215 nM and the IC50 (second compound 10 µM) was 215 nM. For the same compound, the viability, T/C [1] was 84.5%, the viability, T/C [2] was 67.2% and the viability, T/C [3] was 35%. The viability, T/C [4] was 17.3%, the viability, T/C [5] was 13% and the viability, T/C [6] was 11.2%. It also gave a viability, T/C [7] of 85.5%, a viability, T/C [8] of 74.9% and a viability, T/C [9] of 29.6%. The viability, T/C [10] was 20%, the viability, T/C [11] was 14.2% and the viability, T/C [12] was 13%. The viability, T/C [13] was 91.8%, the viability, T/C [14] was 77.1% and the viability, T/C [15] was 33.4%. It also gave a viability, T/C [16] of 19%, a viability, T/C [17] of 15.1% and a viability, T/C [18] of 11.8%. For the same compound, the viability, T/C [19] was 107%, the viability, T/C [20] was 71.3% and the viability, T/C [21] was 36.1%. The viability, T/C [22] was 21.2%, the viability, T/C [23] was 14.9% and the viability, T/C [24] was 13.8%. It also gave a viability, T/C [25] of 102%, a viability, T/C [26] of 73.7% and a viability, T/C [27] of 37%. For the same compound, the viability, T/C [28] was 24.5%, the viability, T/C [29] was 17.9% and the viability, T/C [30] was 15.7%. For the same compound, the viability, T/C [31] was 80.6%, the viability, T/C [32] was 74.4% and the viability, T/C [33] was 37.3%. It also gave a viability, T/C [34] of 23.6%, a viability, T/C [35] of 18.8% and a viability, T/C [36] of 16.9%.
